Results: US11767322B2 (BRISTOL-MYERS SQUIBB COMPANY, priority 2020, dated 2023)
Like-named read-outs stand apart in the source and are kept apart here.

Columns and labels:
[1] = biological target: T1, His-GST-TVMV-hRIPK1(1-324) (Homo sapiens, UniProt Q13546); assay: biochemical; type: binding
T1 construct: The coding region of human RIPK1(1-324) flanked by NdeI site at 5′ end; made in house; host or cells: Spodoptera frugiperda Sf9 insect cells (baculovirus, Bac-to-Bac)
T1 sequence (Q13546 1-324): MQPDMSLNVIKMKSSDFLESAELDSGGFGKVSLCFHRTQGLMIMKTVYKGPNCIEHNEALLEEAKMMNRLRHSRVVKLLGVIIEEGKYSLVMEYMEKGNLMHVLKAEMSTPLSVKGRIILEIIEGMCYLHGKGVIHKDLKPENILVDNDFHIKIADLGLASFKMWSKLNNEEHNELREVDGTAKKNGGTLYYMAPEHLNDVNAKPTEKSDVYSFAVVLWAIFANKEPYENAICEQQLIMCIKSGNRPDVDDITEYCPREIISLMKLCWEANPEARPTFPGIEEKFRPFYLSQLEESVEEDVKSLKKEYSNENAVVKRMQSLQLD

[2] = system: MLKL phosphorylation in HT29-L23 human colorectal adenocarcinoma cells; assay: MLKL phosphorylation high-content assay; type: cell-based
[3] = HTRF probe displacement, 1 h at rt, read-out: RIPK1 IC50
[4] = read-out: pMLKL IC50, HT29-L23 cells, necroptosis induced with TNFα, SMAC mimetic and Z-VAD, 6 h, maximal inhibition defined by Nec1s
[5] = Table 22, compounds of the present invention, read-out: RPIK1 IC50
[6] = Homo sapiens, 6 h, read-out: pMLKL IC50, HT29-L23 cells, necroptosis induced with TNFα, SMAC mimetic and Z-VAD, 6 h, maximal inhibition defined by Nec1s
[7] = Homo sapiens, read-out: pMLKL IC50, Table 22, compounds of the present invention

Nc1nc2cc(-c3ccc(Cl)c(C(=O)NCC(F)(F)C(O)c4cc(F)ccc4F)c3F)ccn2n1 (single isomer, unassigned) [Example 177, 3-(2-amino-[1,2,4]triazolo[1,5-a]pyridin-7-yl)-6-chloro-N-(3-(2,5-difluorophenyl)-2,2-difluoro-3-hydroxypropyl)-2-fluorobenzamide]
IC50 [1, 3]: 1.8 nM | IC50 [2, 4]: 23 nM

Nc1nc2cc(-c3ccc(Cl)c(C(=O)NCCC(O)c4ccc(F)cc4)c3F)ccn2n1 (stereo not shown) [Example 78, 3-(2-amino-[1,2,4]triazolo[1,5-a]pyridin-7-yl)-6-chloro-2-fluoro-N-(3-(4-fluorophenyl)-3-hydroxypropyl)benzamide]
IC50 [1, 3]: 19 nM | IC50 [1, 5]: 19 nM | IC50 [2, 6]: 9.9 nM | IC50 [2, 7]: 9.9 nM

[2H]C([2H])(CC([2H])(O)c1ccc(Cl)cc1)NC(=O)c1c(Cl)ccc(-c2ccn3nc(N)nc3c2)c1F (single isomer, unassigned) [Example 77, 3-(2-amino-[1,2,4]triazolo[1,5-a]pyridin-7-yl)-6-chloro-N-(3-(4-chlorophenyl)-3-hydroxypropyl-1,1,3-d3)-2-fluorobenzamide]
IC50 [1, 3]: 2.9 nM | IC50 [2, 4]: 7.7 nM

[2H]C([2H])([2H])C(O)(c1ccc(F)cc1)C(F)CNC(=O)c1c(C(F)F)ccc(-c2ccn3nc(N)nc3c2)c1F (single isomer, unassigned) [Example 196, 3-(2-amino-[1,2,4]triazolo[1,5-a]pyridin-7-yl)-6-(difluoromethyl)-2-fluoro-N-(2-fluoro-3-(4-fluorophenyl)-3-hydroxybutyl-4,4,4-d3)benzamide]
IC50 [1, 3]: 14 nM | IC50 [2, 4]: 1 nM

Nc1nc2cc(-c3ccc(Cl)c(C(=O)NCC(O)C(F)(F)c4ccc(F)cc4)c3F)ccn2n1 (single isomer, unassigned) [Example 292, 3-(2-amino-[1,2,4]triazolo[1,5-a]pyridin-7-yl)-6-chloro-N-(3,3-difluoro-3-(4-fluorophenyl)-2-hydroxypropyl)-2-fluorobenzamide]
IC50 [1, 3]: 2.4 nM | IC50 [2, 6]: 1 nM

Nc1nc2cc(-c3ccc(Cl)c(C(=O)NCC(F)(F)C(O)c4cccc(Cl)n4)c3F)ccn2n1 (single isomer, unassigned) [Example 263, 3-(2-amino-[1,2,4]triazolo[1,5-a]pyridin-7-yl)-6-chloro-N-(3-(6-chloropyridin-2-yl)-2,2-difluoro-3-hydroxypropyl)-2-fluorobenzamide]
IC50 [1, 3]: 21 nM | IC50 [2, 4]: 48 nM

[2H]C([2H])([2H])OC(c1ccc(F)cc1)C(F)(F)CNC(=O)c1c(C)ccc(-c2ccn3nc(N)nc3c2)c1F (single isomer, unassigned) [Example 236, 3-(2-amino-[1,2,4]triazolo[1,5-a]pyridin-7-yl)-N-(2,2-difluoro-3-(4-fluorophenyl)-3-(methoxy-d3)propyl)-2-fluoro-6-methylbenzamide]
IC50 [1, 3]: 3.4 nM | IC50 [2, 4]: 0.9 nM

Nc1nc2cc(-c3ccc(Cl)c(C(=O)NCC(F)(F)C(O)c4cccc(C(F)(F)F)n4)c3F)ccn2n1 (single isomer, unassigned) [Example 254, 3-(2-amino-[1,2,4]triazolo[1,5-a]pyridin-7-yl)-6-chloro-N-(2,2-difluoro-3-hydroxy-3-(6-(trifluoromethyl)pyridin-2-yl)propyl)-2-fluorobenzamide]
IC50 [1, 3]: 3.5 nM | IC50 [2, 4]: 4.1 nM

Cc1ccc(-c2ccn3nc(N)nc3c2)c(F)c1C(=O)NCC(O)C(F)(F)c1ccc(F)cc1 (single isomer, unassigned) [Example 290, 3-(2-amino-[1,2,4]triazolo[1,5-a]pyridin-7-yl)-N-(3,3-difluoro-3-(4-fluorophenyl)-2-hydroxypropyl)-2-fluoro-6-methylbenzamide]
IC50 [1, 3]: 4.8 nM | IC50 [1, 5]: 4.8 nM | IC50 [2, 4]: 0.5 nM | IC50 ([2]; read-out: pMLKL IC50, Table 22, compounds of the present invention): 0.5 nM

Nc1nc2cc(-c3ccc(Cl)c(C(=O)NCC(F)(F)C(O)c4ccc(C(F)(F)F)cc4F)c3F)ccn2n1 (stereo not shown) [Example 165, 3-(2-amino-[1,2,4]triazolo[1,5-a]pyridin-7-yl)-6-chloro-N-(2,2-difluoro-3-(2-fluoro-4-(trifluoromethyl)phenyl)-3-hydroxypropyl)-2-fluorobenzamide]
IC50 [1, 3]: 1.6 nM | IC50 [2, 4]: 2.8 nM

Cc1cc(F)c(-c2ccn3nc(N)nc3c2)cc1C(=O)NCC(F)(F)C(C)(O)c1ccc(Cl)cc1 (single isomer, unassigned) [Example 226, 5-(2-amino-[1,2,4]triazolo[1,5-a]pyridin-7-yl)-N-(3-(4-chlorophenyl)-2,2-difluoro-3-hydroxybutyl)-4-fluoro-2-methylbenzamide]
IC50 [1, 3]: 8.3 nM | IC50 [2, 4]: 2.2 nM

Cc1ccc(-c2ccn3nc(N)nc3c2)c(F)c1C(=O)NCC[C@H](O)c1ccc(Cl)cc1 [Example 151, (S)-3-(2-amino-[1,2,4]triazolo[1,5-a]pyridin-7-yl)-N-(3-(4-chlorophenyl)-3-hydroxypropyl)-2-fluoro-6-methylbenzamide]
IC50 [1, 3]: 2.8 nM | IC50 [1, 5]: 3.5 nM | IC50 [2, 6]: 0.8 nM | IC50 [2, 7]: 0.8 nM

Cc1cc(F)c(-c2ccn3nc(N)nc3c2)cc1C(=O)NCCC(O)c1ccc(F)cc1 (stereo not shown) [Example 8, 5-(2-amino-[1,2,4]triazolo[1,5-a]pyridin-7-yl)-4-fluoro-N-(3-(4-fluorophenyl)-3-hydroxypropyl)-2-methylbenzamide]
IC50 [1, 3]: 5.1 nM | IC50 [2, 6]: 2.3 nM

CC(O)(c1ccc(F)cc1)C(F)(F)CNC(=O)c1c(Cl)ccc(-c2ccn3nc(N)nc3c2)c1F (single isomer, unassigned) [Example 88, 3-(2-amino-[1,2,4]triazolo[1,5-a]pyridin-7-yl)-6-chloro-N-(2,2-difluoro-3-(4-fluorophenyl)-3-hydroxybutyl)-2-fluorobenzamide]
IC50 [1, 3]: 3.6 nM | IC50 [2, 6]: 2.4 nM

[2H]C([2H])([2H])c1ccc(-c2ccn3nc(N)nc3c2)c(F)c1C(=O)NCC1(C([2H])(O)c2ccc(F)cc2)CC1 (single isomer, unassigned) [Example 309, 3-(2-amino-[1,2,4]triazolo[1,5-a]pyridin-7-yl)-2-fluoro-N-((1-((4-fluorophenyl) (hydroxy)methyl-d)cyclopropyl)methyl)-6-(methyl-d3)benzamide]
IC50 [1, 3]: 6.2 nM | IC50 [2, 6]: 11 nM

Cc1ccc(-c2ccn3nc(N)nc3c2)c(F)c1C(=O)NCC(F)(F)Cc1ccc(F)cc1 [Example 208, 3-(2-amino-[1,2,4]triazolo[1,5-a]pyridin-7-yl)-N-(2,2-difluoro-3-(4-fluorophenyl)propyl)-2-fluoro-6-methylbenzamide]
IC50 [1, 3]: 2.6 nM | IC50 [2, 6]: 0.2 nM

Cc1ccc(-c2ccn3nc(N)nc3c2)c(F)c1C(=O)NCC(F)(F)C(O)(c1ccc(F)cc1)C(F)F (stereo not shown) [Example 274, 3-(2-amino-[1,2,4]triazolo[1,5-a]pyridin-7-yl)-2-fluoro-6-methyl-N-(2,2,4,4-tetrafluoro-3-(4-fluorophenyl)-3-hydroxybutyl)benzamide]
IC50 [1, 3]: 19 nM | IC50 [2, 6]: 0.7 nM

Nc1nc2cc(-c3ccc(Cl)c(C(=O)NCC(F)(F)C(O)c4cccc(F)c4)c3F)ccn2n1 (single isomer, unassigned) [Example 169, 3-{2-amino-[1,2,4]triazolo[1,5-a]pyridin-7-yl}-6-chloro-N-[2,2-difluoro-3-(3-fluorophenyl)-3-hydroxypropyl]-2-fluorobenzamide]
IC50 [1, 3]: 0.9 nM | IC50 [2, 4]: 28 nM

Nc1nc2cc(-c3ccc(Cl)c(C(=O)NCC(F)(F)C(O)c4ccc(F)cc4F)c3F)ccn2n1 (single isomer, unassigned) [Example 178, 3-(2-amino-[1,2,4]triazolo[1,5-a]pyridin-7-yl)-6-chloro-N-(3-(2,4-difluorophenyl)-2,2-difluoro-3-hydroxypropyl)-2-fluorobenzamide]
IC50 [1, 3]: 0.9 nM | IC50 [2, 4]: 22 nM

Nc1nc2cc(-c3ccc(Cl)c(C(=O)NCC(F)(F)C(O)c4cccc(Cl)c4)c3F)ccn2n1 (stereo not shown) [Example 192, 3-(2-amino-[1,2,4]triazolo[1,5-a]pyridin-7-yl)-6-chloro-N-(3-(3-chlorophenyl)-2,2-difluoro-3-hydroxypropyl)-2-fluorobenzamide]
IC50 [1, 3]: 3.5 nM | IC50 [2, 4]: 1.2 nM

Cc1ccc(-c2ccn3nc(N)nc3c2)c(F)c1C(=O)NCCC(C)(O)c1ccc(C#N)cc1 (stereo not shown) [Example 141, 3-{2-amino-[1,2,4]triazolo[1,5-a]pyridin-7-yl}-N-[3-(4-cyanophenyl)-3-hydroxybutyl]-2-fluoro-6-methylbenzamide]
IC50 [1, 3]: 22 nM | IC50 [2, 6]: 38 nM

Cc1cc(F)c(-c2ccn3nc(N)nc3c2)cc1C(=O)NCC(F)(F)C(C)(O)c1ccc(Cl)cc1 (single isomer, unassigned) [Example 225, 5-(2-amino-[1,2,4]triazolo[1,5-a]pyridin-7-yl)-N-(3-(4-chlorophenyl)-2,2-difluoro-3-hydroxybutyl)-4-fluoro-2-methylbenzamide]
IC50 [1, 3]: 19 nM | IC50 [2, 6]: 3.8 nM

Cc1ccc(C(O)C(F)(F)CNC(=O)c2c(Cl)ccc(-c3ccn4nc(N)nc4c3)c2F)c(F)c1 (stereo not shown) [Example 182, 3-(2-amino-[1,2,4]triazolo[1,5-a]pyridin-7-yl)-6-chloro-N-(2,2-difluoro-3-(2-fluoro-4-methylphenyl)-3-hydroxypropyl)-2-fluorobenzamide]
IC50 [1, 3]: 1.2 nM | IC50 [2, 4]: 2.9 nM
